Source: the CheMixHub viscosity set
“And” between values parts separate entries of the source, which are not always exact repeats. Equal values may be shown once.

Test: xn = mol fraction of the nth substance listed

CCC(N)C(=O)[O-].[K+] (centres undefined) + O
viscosity [mPa·s], 101.3 kPa
Conditions	x1 = 0.009	x1 = 0.019	x1 = 0.029	x1 = 0.039	x1 = 0.05	x1 = 0.06
303.15 K	0.988	1.223	1.552	1.974	2.518	3.297
308.15 K	0.884	1.093	1.394	1.74	2.206	2.877
313.15 K	0.803	0.984	1.257	1.559	1.962	2.544
318.15 K	0.728	0.89	1.133	1.399	1.757	2.257
323.15 K	0.67	0.813	1.032	1.272	1.585	2.017

CC(C)C1CCCCC1 + CCCCO
viscosity [mPa·s], 100 kPa
Conditions	x1 = 0.0995	x1 = 0.1998	x1 = 0.2959	x1 = 0.4009	x1 = 0.4944	x1 = 0.5738	x1 = 0.6818	x1 = 0.7966	x1 = 0.8935
293.15 K	2.489	2.126	1.858	1.614	1.45	1.325	1.214	1.139	1.105
298.15 K	2.189	1.884	1.654	1.449	1.31	1.207	1.114	1.051	1.022
303.15 K	1.94	1.678	1.481	1.308	1.189	1.104	1.024	0.974	0.95
308.15 K	1.726	1.501	1.332	1.185	1.085	1.014	0.947	0.905	0.885
313.15 K	1.539	1.348	1.203	1.078	0.994	0.935	0.879	0.844	0.827
318.15 K	1.379	1.216	1.092	0.985	0.915	0.866	0.818	0.789	0.774
323.15 K	1.241	1.1	0.995	0.906	0.845	0.804	0.764	0.738	0.727

C1CN2CN3CCN(CN1C3)C2 + [2H]O[2H]
viscosity [mPa·s], 101 kPa
Conditions	x1 = 0.004058	x1 = 0.008015	x1 = 0.01192	x1 = 0.01581	x1 = 0.02009
293.15 K	1.263	1.307	1.389	1.485	1.602
298.15 K	1.128	1.174	1.233	1.315	1.426
300.15 K	1.018	1.066	1.131	1.225	1.352
305.15 K	0.918	0.975	1.042	1.133	1.251

CC(O)c1ccccc1 (centres undefined) + c1ccccc1
293.15 K, 101.32 kPa
Conditions	viscosity [mPa·s]
x1 = 0.01616	0.6575
x1 = 0.05419	0.708
x1 = 0.09606	0.7832
x1 = 0.1306	0.85
x1 = 0.1766	0.9508

O=CC(Br)(Br)Br + CCCCO
viscosity [mPa·s], 101.33 kPa
Conditions	x1 = 0.1	x1 = 0.2	x1 = 0.3	x1 = 0.4	x1 = 0.5	x1 = 0.6	x1 = 0.7	x1 = 0.797	x1 = 0.899
293.15 K	4.71	6.92	10.15	15.97	22.38	21.27	15.08	11.21	9.11
313.15 K	2.56	3.84	4.96	7.06	8.81	8.39	6.2	4.97	4.21

CCCCCCCCCCCCCCCC[N+](C)(C)CCOCCO.Cc1cc(Cl)ccc1OCC(=O)[O-] + CCCCCCCCCCCCCCCC[N+](C)(C)CCOCCO.Cc1cc(Cl)ccc1O[C@H](C)C(=O)[O-]
100 kPa, x1 = 0.58
Conditions	viscosity
293.15 K	4543 mPa·s and 4543 mPa·s
303.15 K	1909 mPa·s
313.15 K	928.5 mPa·s
323.15 K	493.4 mPa·s

O=[N+]([O-])[O-].O=[N+]([O-])[O-].[Ba+2] + O
viscosity [mPa·s], 100 kPa
Conditions	x1 = 0.0003	x1 = 0.001	x1 = 0.003	x1 = 0.004	x1 = 0.006
298.15 K	0.888	0.9055	0.9235	0.943	0.965
323.15 K	0.5475	0.562	0.5775	0.59	0.603

CNC[C@H](O)c1cccc(O)c1.Cl + CO
viscosity [mPa·s], 100 kPa
Conditions	293.15 K	298.15 K	303.15 K	308.15 K	313.15 K	318.15 K	323.15 K
x1 = 0.00048	0.6061	0.5699	0.5374	0.4992	0.4719	0.4428	0.4161
x1 = 0.00096	0.6213	0.5836	0.5482	0.5108	0.4839	0.4485	0.4228
x1 = 0.00144	0.6373	0.593	0.5581	0.5213	0.4935	0.4539	0.4302
x1 = 0.00192	0.6534	0.6059	0.5687	0.5404	0.5059	0.466	0.433
x1 = 0.0024	0.6642	0.6216	0.5828	0.5593	0.5182	0.4782	0.4357

CC(Cl)(Cl)Cl + CCOC(C)=O
Conditions	viscosity [mPa·s]
298.15 K, 101.33 kPa, x1 = 0.098	0.4485
298.15 K, 101.33 kPa, x1 = 0.197	0.4712
298.15 K, 101.33 kPa, x1 = 0.297	0.4964
298.15 K, 101.33 kPa, x1 = 0.398	0.5244
298.15 K, 101.33 kPa, x1 = 0.498	0.5554
298.15 K, 101.33 kPa, x1 = 0.598	0.5901
298.15 K, 101.33 kPa, x1 = 0.699	0.6295
298.15 K, 101.33 kPa, x1 = 0.771	0.665
298.15 K, 101.33 kPa, x1 = 0.885	0.7192
303.15 K, 101.3 kPa, x2 = 0.1006	0.6668
303.15 K, 101.3 kPa, x2 = 0.1989	0.6158
303.15 K, 101.3 kPa, x2 = 0.2986	0.5731
303.15 K, 101.3 kPa, x2 = 0.4038	0.5366
303.15 K, 101.3 kPa, x2 = 0.4965	0.5101
303.15 K, 101.3 kPa, x2 = 0.5999	0.4831
303.15 K, 101.3 kPa, x2 = 0.7003	0.4579
303.15 K, 101.3 kPa, x2 = 0.7974	0.4366
303.15 K, 101.3 kPa, x2 = 0.9008	0.4167

CCCCCCCCn1cc[n+](C)c1.[Cl][Fe-]([Cl])([Cl])[Cl] + CCOC(C)=O
viscosity [mPa·s], 101 kPa
Conditions	x1 = 0.0999	x1 = 0.197	x1 = 0.2987	x1 = 0.3989	x1 = 0.4986	x1 = 0.6004	x1 = 0.6958	x1 = 0.7939	x1 = 0.8777
293.15 K	1.47	3.56	7.5	13.82	23.21	37.15	58.2	85.97	111.8
298.15 K	1.38	3.24	6.65	11.97	19.68	30.95	47.6	69.55	91.12
303.15 K	1.29	2.97	5.94	10.48	16.88	26.07	39.75	56.28	73.83
308.15 K	1.21	2.72	5.33	9.22	14.61	22.2	33.32	46.86	59.83
313.15 K	1.14	2.52	4.81	8.17	12.77	19.08	28.28	39.4	49.32
318.15 K	1.07	2.33	4.37	7.31	11.24	16.49	24.27	33.42	41.48
323.15 K	1.02	2.16	3.99	6.6	9.97	14.4	20.98	28.43	35.08

CCCCCBr + C1CCCCC1
308.15 K, 101 kPa
Conditions	viscosity [mPa·s]
x2 = 0.0975	0.6428
x2 = 0.1991	0.6363
x2 = 0.2997	0.6323
x2 = 0.398	0.6305
x2 = 0.5025	0.6321
x2 = 0.5837	0.6355
x2 = 0.695	0.645
x2 = 0.8018	0.6614
x2 = 0.9007	0.6894

CC(Cl)(Cl)Cl + CCO
viscosity [mPa·s], 101.32 kPa
Conditions	x2 = 0.1602	x2 = 0.3002	x2 = 0.4237	x2 = 0.5336	x2 = 0.6318	x2 = 0.7202	x2 = 0.8001	x2 = 0.8728	x2 = 0.9392
303.15 K	0.705	0.745	0.778	0.839	0.87	0.902	0.924	0.942	0.984
313.15 K	0.614	0.669	0.683	0.71	0.745	0.761	0.784	0.807	0.819
323.15 K	0.56	0.597	0.604	0.614	0.639	0.655	0.664	0.684	0.692

CC(Cl)(Cl)Cl + CCCOCCC
298.15 K, 101.33 kPa
Conditions	viscosity [mPa·s]
x1 = 0.101	0.4245
x1 = 0.198	0.4478
x1 = 0.299	0.4745
x1 = 0.398	0.5036
x1 = 0.5	0.5365
x1 = 0.601	0.5733
x1 = 0.7	0.6147
x1 = 0.8	0.6632
x1 = 0.85	0.6907

O=CO + CO
303.15 K, 101 kPa
Conditions	viscosity [mPa·s]
x1 = 0.0714	0.573
x1 = 0.1463	0.609
x1 = 0.2264	0.641
x1 = 0.3137	0.658
x1 = 0.4031	0.677
x1 = 0.506	0.691
x1 = 0.6149	0.75
x1 = 0.7328	0.867
x1 = 0.8604	1.062

CC(C)C1CCCCC1 + C1C[C@@H]2[C@H]3CC[C@H](C3)[C@@H]2C1
viscosity [mPa·s], 100 kPa
Conditions	x2 = 0.1002	x2 = 0.1999	x2 = 0.3001	x2 = 0.4	x2 = 0.5	x2 = 0.5999	x2 = 0.7001	x2 = 0.8003	x2 = 0.8999
293.15 K	1.194	1.305	1.431	1.578	1.741	1.938	2.165	2.421	2.706
298.15 K	1.106	1.206	1.32	1.451	1.597	1.775	1.976	2.205	2.456
303.15 K	1.029	1.119	1.222	1.34	1.471	1.631	1.812	2.016	2.241
308.15 K	0.96	1.042	1.135	1.242	1.361	1.506	1.67	1.853	2.055
313.15 K	0.898	0.973	1.058	1.156	1.265	1.397	1.543	1.709	1.891
318.15 K	0.842	0.911	0.989	1.078	1.178	1.298	1.431	1.581	1.746
323.15 K	0.793	0.855	0.927	1.009	1.1	1.21	1.331	1.467	1.616

CC(Cl)(Cl)Cl + CCC(C)O
298.15 K, 101 kPa
Conditions	viscosity [mPa·s]
x1 = 0.099	2.21
x1 = 0.2079	1.726
x1 = 0.2768	1.46
x1 = 0.3656	1.225
x1 = 0.5119	1.008
x1 = 0.5786	0.94
x1 = 0.6988	0.85
x1 = 0.78	0.808
x1 = 0.8911	0.781

CC(Cl)(Cl)Cl + Cc1ccccc1
303.15 K, 101 kPa
Conditions	viscosity [mPa·s]
x1 = 0.1635	0.5716
x1 = 0.2871	0.6046
x1 = 0.3684	0.6248
x1 = 0.4152	0.6363
x1 = 0.4825	0.6505
x1 = 0.5694	0.6666
x1 = 0.6729	0.6834
x1 = 0.763	0.6958
x1 = 0.8412	0.7049
x1 = 0.9286	0.7156

CC(Cl)(Cl)Cl + CCCCCCCO
303.15 K, 101 kPa
Conditions	viscosity [mPa·s]
x2 = 0.1177	0.974
x2 = 0.2075	1.143
x2 = 0.4385	1.666
x2 = 0.5262	1.941
x2 = 0.5911	2.186
x2 = 0.6407	2.407
x2 = 0.7497	2.99
x2 = 0.8365	3.56
x2 = 0.9206	4.198

CCCCCBr + c1ccccc1
308.15 K, 101 kPa
Conditions	viscosity [mPa·s]
x2 = 0.0961	0.6279
x2 = 0.2061	0.6028
x2 = 0.2972	0.5854
x2 = 0.3978	0.5636
x2 = 0.4978	0.5452
x2 = 0.5868	0.5316
x2 = 0.7022	0.5149
x2 = 0.8752	0.5028
x2 = 0.9275	0.503

CCCCCBr + Cc1ccc(C)cc1
308.15 K, 101 kPa
Conditions	viscosity [mPa·s]
x2 = 0.1026	0.6316
x2 = 0.1991	0.6138
x2 = 0.304	0.5958
x2 = 0.4033	0.5803
x2 = 0.503	0.5655
x2 = 0.6052	0.5526
x2 = 0.7021	0.5436
x2 = 0.8	0.5318
x2 = 0.9034	0.5238
